Source: US11000033B2, “Ketone or oxime compound, and herbicide” (NISSAN CHEMICAL CORPORATION, priority 2014, dated 2021)

Assays:
Format in all cases: in vivo
[1] = tested on: Scirpus juncoides; test: Test Example 2: herbicidal activity, application during weed generation in submerged conditions (symbol B); conditions: Table 23; application herbicide amount 320 g/ha; grade 0-5 by criteria of Test Example 1
Summary of the method: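 Scoring of herbicidal effect took place 3 weeks after treatment, using the criteria of the earlier test. Treatment was water-surface application of diluted emulsifiable compound at a set dose. Plants were at one- to two-leaf stage in submerged alluvial soil (4 cm depth), greenhouse 25-30° C.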

[2] = tested on: Echinochloa crus-galli var. crus-galli; test: Test Example 4: herbicidal effect by soil treatment (symbol H); conditions: for H: Echinochloa crus-galli var. crus-galli, herbicidal effect grade: 320 g/ha; for Herbicidal effect grade, H: Echinochloa crus-galli var. crus-galli: application herbicide amount 320 g/ha
Source text: (§1) Herbicidal Effect Test by Soil Treatment
(§2) Sterilized diluvial soil was placed in a plastic box having a length of 21 cm, a width of 13 cm, and a depth of 7 cm. Each of the seeds of Digitaria ciliaris, Setaria viridis, Echinochloa crus-galli var. crus-galli, Avena fatua, Alopecurus myosuroides, Lolium multiflorum Lam., Apera spica-venti, Abutilon theophrasti, Amaranthus retroflexus, Chenopodium album, Stellaria media, Galium spurium, Veronica persica, corn, soybean, rice, wheat, beet, and rapeseed was sowed in a spot-like manner and was covered with the soil of a thickness of about 1.5 cm. Subsequently, the emulsion agent of the compound present invention prepared in accordance with Formulation Example 2 was diluted with water so as to be a predetermined herbicide amount and the diluted emulsion agent was uniformly applied to the surface of the soil with a small-size spray. The plastic box was placed in a greenhouse of 25° C. to 30° C. to grow plant. 3 weeks later from the herbicide application, the effect to each plant was investigated in accordance with the criteria of Test Example 1.

[3] = tested on: Stellaria media; test: Test Example 5: herbicidal effect by foliage application, plastic box (symbol P); conditions: 320 g/ha, 3 weeks after application
Summary of the method: (§3)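 Greenhouse foliar test: seedlings at 14 days, grown 25° C. to 30° C. in sterilized diluvial soil; compound applied as an aqueous dilution of an emulsion; response read 3 weeks after spraying.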

[4] = tested on: Echinochloa oryzacola Vasing.; test: Test Example 1: herbicidal activity, application before weed generation in submerged conditions (symbol A); conditions: application herbicide amount 320 g/ha
Summary of the method: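 Steps: alluvial soil flooded to 4 cm; weed seeds sown together; rice seedlings (2.5 leaf) transplanted; diluted emulsion applied to water surface the same day as sowing; plants grown at 25–30 °C in greenhouse; herbicidal effect rated on a 0–5 scale at 3 weeks.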

[5] = tested on: Avena fatua; test: Test Example 5: herbicidal effect by foliage application, plastic box (symbol I); conditions: 320 g/ha, 3 weeks after application
Summary of the method: as §3

[6] = tested on: Amaranthus retroflexus; test: Test Example 5: herbicidal effect by foliage application, plastic box (symbol N); conditions: 320 g/ha, 3 weeks after application
Summary of the method: as §3

[7] = tested on: Lolium multiflorum Lam.; test: Test Example 5: herbicidal effect by foliage application, plastic box (symbol K); conditions: 320 g/ha, 3 weeks after application
Summary of the method: as §3

[8] = tested on: Cyperus difformis; test: Test Example 3: herbicidal effect by foliage application, Wagner pot (symbol E); conditions: application herbicide amount 320 g/ha; for E herbicidal effect grade: Table 24
Summary of the method: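 Foliar spray of a water-diluted emulsion at a predetermined herbicide amount, applied to 14-day-old plants. Seedlings were raised in flooded alluvial soil (0.1–0.5 cm water) at 25–30 °C in a greenhouse. Injury was rated after 3 weeks against fixed criteria.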

[9] = tested on: corn; test: Test Example 4: effect on crop by soil treatment (symbol c); conditions: for c: corn, effect grade on crop: 320 g/ha; for Effect on crop grade, c: corn: application herbicide amount 320 g/ha
Source text: as §1
(§4) Sterilized diluvial soil was placed in a plastic box having a length of 21 cm, a width of 13 cm, and a depth of 7 cm. Each of the seeds of Digitaria ciliaris, Setaria viridis, Echinochloa crus-galli var. crus-galli, Avena fatua, Alopecurus myosuroides, Lolium multiflorum Lam., Apera spica-venti, Abutilon theophrasti, Amaranthus retroflexus, Chenopodium album, Stellaria media, Galium spurium, Veronica persica, corn, soybean, rice, wheat, beet, and rapeseed was sowed in a spot-like manner and was covered with the soil of a thickness of about 1.5 cm. […] The plastic box was placed in a greenhouse of 25° C. to 30° C. to grow plant.

[10] = tested on: Veronica persica; test: Test Example 5: herbicidal effect by foliage application, plastic box (symbol R); conditions: 320 g/ha, 3 weeks after application
Summary of the method: as §3

[11] = tested on: Apera spica-venti; test: Test Example 5: herbicidal effect by foliage application, plastic box (symbol L); conditions: 320 g/ha, 3 weeks after application
Summary of the method: as §3

[12] = tested on: Abutilon theophrasti; test: Test Example 5: herbicidal effect by foliage application, plastic box (symbol M); conditions: 320 g/ha, 3 weeks after application
Summary of the method: as §3

[13] = tested on: rapeseed; test: Test Example 4: effect on crop by soil treatment (symbol g); conditions: for g: rapeseed, effect grade on crop: 320 g/ha; for Effect on crop grade, g: rapeseed: application herbicide amount 320 g/ha
Source text: as §1, §4

[14] = tested on: Amaranthus retroflexus; test: Test Example 4: herbicidal effect by soil treatment (symbol N); conditions: for N: Amaranthus retroflexus, herbicidal effect grade: 320 g/ha; for Herbicidal effect grade, N: Amaranthus retroflexus: application herbicide amount 320 g/ha
Source text: as §1, §2

| SMILES | Herbicidal effect grade, B: Scirpus juncoides [1] | H: Echinochloa crus-galli var. crus-galli, herbicidal effect grade [2] | P: Stellaria media, herbicidal effect (criteria 0-5) [3] | Herbicidal effect grade, A: Echinochloa oryzacola Vasing. [4] | I: Avena fatua, herbicidal effect (criteria 0-5) [5] | N: Amaranthus retroflexus, herbicidal effect (criteria 0-5) [6] | K: Lolium multiflorum Lam., herbicidal effect (criteria 0-5) [7] | Herbicidal effect grade, H: Echinochloa crus-galli var. crus-galli [2] | P: Stellaria media, herbicidal effect grade [3] | A (Echinochloa oryzacola Vasing.) herbicidal effect grade [4] | I: Avena fatua, herbicidal effect grade [5] | N: Amaranthus retroflexus, herbicidal effect grade [6] | K: Lolium multiflorum Lam., herbicidal effect grade [7] | E herbicidal effect grade [8] | Effect on crop grade, c: corn [9] | R: Veronica persica, herbicidal effect grade [10] | L: Apera spica-venti, herbicidal effect grade [11] | M: Abutilon theophrasti, herbicidal effect grade [12] | Effect on crop grade, g: rapeseed [13] | Herbicidal effect grade, N: Amaranthus retroflexus [14] | other results |
| --- | --- | --- | --- | --- | --- | --- | --- | --- | --- | --- | --- | --- | --- | --- | --- | --- | --- | --- | --- | --- | --- |
| CON=C(C)CC1CC(OC(=O)C#C[Si](C)(C)C)=C(c2c(C)cc(C)cc2C)C1=O (stereo not shown) [1-096] | 5 (Herbicidal ratio of 90% or more (almost completely withered)) | 4 (Herbicidal ratio of 70% or higher and lower than 90%) | 2 (Herbicidal ratio of 20% or higher and lower than 40%) | 5 (Herbicidal ratio of 90% or more (almost completely withered)) | 5 (Herbicidal ratio of 90% or more (almost completely withered)) | 2 (Herbicidal ratio of 20% or higher and lower than 40%) | 5 (Herbicidal ratio of 90% or more (almost completely withered)) | – | – | – | – | – | – | – | – | – | – | – | – | – | herbicidal effect on E, grade 0-5 [8]: 5 (Herbicidal ratio of 90% or more (almost completely withered)); c: corn, effect grade on crop [9]: 4 (Herbicidal ratio of 70% or higher and lower than 90%); R: Veronica persica, herbicidal effect (criteria 0-5) [10]: 3 (Herbicidal ratio of 40% or higher and lower than 70%); L: Apera spica-venti, herbicidal effect (criteria 0-5) [11]: 5 (Herbicidal ratio of 90% or more (almost completely withered)); M: Abutilon theophrasti, herbicidal effect (criteria 0-5) [12]: 4 (Herbicidal ratio of 70% or higher and lower than 90%); g: rapeseed, effect grade on crop [13]: 3 (Herbicidal ratio of 40% or higher and lower than 70%); N: Amaranthus retroflexus, herbicidal effect grade [14]: 4 (Herbicidal ratio of 70% or higher and lower than 90%) |
| CCCCCCCCS(=O)(=O)OC1=C(c2c(C)cc(C)cc2C)C(=O)C(CC(C)=NOC)C1 (stereo not shown) [1-107] | 2 (Herbicidal ratio of 20% or higher and lower than 40%) | 5 (Herbicidal ratio of 90% or more (almost completely withered)) | 0 (Herbicidal ratio of 5% or lower (almost no effect)) | 5 (Herbicidal ratio of 90% or more (almost completely withered)) | 5 (Herbicidal ratio of 90% or more (almost completely withered)) | 0 (Herbicidal ratio of 5% or lower (almost no effect)) | 5 (Herbicidal ratio of 90% or more (almost completely withered)) | – | – | – | – | – | – | – | – | – | – | – | – | – | herbicidal effect on E, grade 0-5 [8]: 5 (Herbicidal ratio of 90% or more (almost completely withered)); c: corn, effect grade on crop [9]: 0 (Herbicidal ratio of 5% or lower (almost no effect)); R: Veronica persica, herbicidal effect (criteria 0-5) [10]: 0 (Herbicidal ratio of 5% or lower (almost no effect)); L: Apera spica-venti, herbicidal effect (criteria 0-5) [11]: 5 (Herbicidal ratio of 90% or more (almost completely withered)); M: Abutilon theophrasti, herbicidal effect (criteria 0-5) [12]: 1 (Herbicidal ratio of 5% or higher and lower than 20%); g: rapeseed, effect grade on crop [13]: 2 (Herbicidal ratio of 20% or higher and lower than 40%); N: Amaranthus retroflexus, herbicidal effect grade [14]: 0 (Herbicidal ratio of 5% or lower (almost no effect)) |
| CC#Cc1cc(C)c(C2=C(OC(=O)COc3ccccc3)CC(CC(C)=NOCC(F)(F)F)C2=O)c(C)c1 (stereo not shown) [9-013] | 5 (Herbicidal ratio of 90% or more (almost completely withered)) | – | – | – | – | – | – | 5 (Herbicidal ratio of 90% or more (almost completely withered)) | 2 (Herbicidal ratio of 20% or higher and lower than 40%) | 5 (Herbicidal ratio of 90% or more (almost completely withered)) | 5 (Herbicidal ratio of 90% or more (almost completely withered)) | 0 (Herbicidal ratio of 5% or lower (almost no effect)) | 5 (Herbicidal ratio of 90% or more (almost completely withered)) | 5 (Herbicidal ratio of 90% or more (almost completely withered)) | 5 (Herbicidal ratio of 90% or more (almost completely withered)) | 4 (Herbicidal ratio of 70% or higher and lower than 90%) | 5 (Herbicidal ratio of 90% or more (almost completely withered)) | 4 (Herbicidal ratio of 70% or higher and lower than 90%) | 4 (Herbicidal ratio of 70% or higher and lower than 90%) | 1 (Herbicidal ratio of 5% or higher and lower than 20%) | – |
| COC(=O)C(C(=O)C1CC1)C1CC(O)=C(c2c(C)cc(Br)cc2C)C1=O (mixture of isomers) [10-002] | 0 (Herbicidal ratio of 5% or lower (almost no effect)) | – | – | – | – | – | – | 4 (Herbicidal ratio of 70% or higher and lower than 90%) | 0 (Herbicidal ratio of 5% or lower (almost no effect)) | 1 (Herbicidal ratio of 5% or higher and lower than 20%) | 5 (Herbicidal ratio of 90% or more (almost completely withered)) | 0 (Herbicidal ratio of 5% or lower (almost no effect)) | 5 (Herbicidal ratio of 90% or more (almost completely withered)) | 3 (Herbicidal ratio of 40% or higher and lower than 70%) | 0 (Herbicidal ratio of 5% or lower (almost no effect)) | 0 (Herbicidal ratio of 5% or lower (almost no effect)) | 4 (Herbicidal ratio of 70% or higher and lower than 90%) | 0 (Herbicidal ratio of 5% or lower (almost no effect)) | 0 (Herbicidal ratio of 5% or lower (almost no effect)) | 0 (Herbicidal ratio of 5% or lower (almost no effect)) | – |
| Cc1cc(Br)cc(C)c1C1=C(O)CC(CC(=O)C2CC2)C1=O (racemic) [10-004] | 0 (Herbicidal ratio of 5% or lower (almost no effect)) | – | – | – | – | – | – | 5 (Herbicidal ratio of 90% or more (almost completely withered)) | 0 (Herbicidal ratio of 5% or lower (almost no effect)) | 5 (Herbicidal ratio of 90% or more (almost completely withered)) | 5 (Herbicidal ratio of 90% or more (almost completely withered)) | 0 (Herbicidal ratio of 5% or lower (almost no effect)) | 5 (Herbicidal ratio of 90% or more (almost completely withered)) | 5 (Herbicidal ratio of 90% or more (almost completely withered)) | 5 (Herbicidal ratio of 90% or more (almost completely withered)) | 3 (Herbicidal ratio of 40% or higher and lower than 70%) | 5 (Herbicidal ratio of 90% or more (almost completely withered)) | 3 (Herbicidal ratio of 40% or higher and lower than 70%) | 0 (Herbicidal ratio of 5% or lower (almost no effect)) | 0 (Herbicidal ratio of 5% or lower (almost no effect)) | – |
